Test results as given in ChEMBL document CHEMBL2440045, “The synthesis and anticancer activity of analogs of the indole phytoalexins brassinin, 1-methoxyspirobrassinol methyl ether and cyclobrassinin” (Bioorg Med Chem, 2013).

test system: MDA-MB-231; assay: Antiproliferative activity against human MDA-MB-231 cells assessed as cell viability after 72 hrs by MTT assay; assay type: functional, cell-based; conditions: MDA-MB-231, 72 h

Compound	IC50 [µM]
c1ccc2c3c([nH]c2c1)SC(N1CCOCC1)=NC3	33.1
CN(C1=NC[C@]2(S1)c1ccccc1N(C(=O)OC(C)(C)C)[C@H]2O)c1ccccc1 (racemic)	32.4
CC(C)(C)OC(=O)n1cc(CNC(=S)Nc2ccc(Br)cc2)c2ccccc21	13
CN(C1=NCc2c([nH]c3ccccc23)S1)c1ccccc1	42.4
COc1ccc(NC(=S)NCc2cn(C(=O)OC(C)(C)C)c3ccccc23)cc1	> 100
CN(C(=S)NCc1cn(C(=O)OC(C)(C)C)c2ccccc12)c1ccccc1	> 100
CO[C@H]1N(C(=O)OC(C)(C)C)c2ccccc2[C@@]12CN=C(N(C)c1ccccc1)S2 (racemic)	31.7

Other lines, results leading:

IC50 [µM]	Compound
> 100	CNC(=S)NCc1cn(C(=O)OC(C)(C)C)c2ccccc12
8.6	CC(C)(C)OC(=O)n1cc(CNC(=S)Nc2ccc([N+](=O)[O-])cc2)c2ccccc21
> 100	CN(C1=NC[C@]2(S1)c1ccccc1N(C(=O)OC(C)(C)C)[C@@H]2O)c1ccccc1 (racemic)
4.5	CC(C)(C)OC(=O)n1cc(CNC(=S)Nc2ccc(C(F)(F)F)cc2)c2ccccc21
38.6	CO[C@@H]1N(C(=O)OC(C)(C)C)c2ccccc2[C@@]12CN=C(Nc1cc(C(F)(F)F)cc(C(F)(F)F)c1)S2 (racemic)
37.5	CO[C@H]1N(C(=O)OC(C)(C)C)c2ccccc2[C@@]12CN=C(Nc1ccc([N+](=O)[O-])cc1)S2 (racemic)
> 100	CNC1=NC[C@]2(S1)c1ccccc1N(C(=O)OC(C)(C)C)[C@H]2OC (racemic)
21.4	CSC(=S)NCc1cn(C(=O)OC(C)(C)C)c2ccccc12

test system: CCRF-CEM; assay: Antiproliferative activity against human CCRF-CEM cells assessed as cell viability after 72 hrs by MTT assay; assay type: functional, cell-based; conditions: not given

Compound	IC50 [µM]
c1ccc2c3c([nH]c2c1)SC(N1CCOCC1)=NC3	5.9
CN(C1=NC[C@]2(S1)c1ccccc1N(C(=O)OC(C)(C)C)[C@H]2O)c1ccccc1 (racemic)	22.8
CC(C)(C)OC(=O)n1cc(CNC(=S)Nc2ccc(Br)cc2)c2ccccc21	3.8
CN(C1=NCc2c([nH]c3ccccc23)S1)c1ccccc1	28
COc1ccc(NC(=S)NCc2cn(C(=O)OC(C)(C)C)c3ccccc23)cc1	22
CN(C(=S)NCc1cn(C(=O)OC(C)(C)C)c2ccccc12)c1ccccc1	> 100
CO[C@H]1N(C(=O)OC(C)(C)C)c2ccccc2[C@@]12CN=C(N(C)c1ccccc1)S2 (racemic)	18.3

Second part, the compound after the results:

IC50 [µM]	Compound
> 100	CNC(=S)NCc1cn(C(=O)OC(C)(C)C)c2ccccc12
3.8	CC(C)(C)OC(=O)n1cc(CNC(=S)Nc2ccc([N+](=O)[O-])cc2)c2ccccc21
64.3	CN(C1=NC[C@]2(S1)c1ccccc1N(C(=O)OC(C)(C)C)[C@@H]2O)c1ccccc1 (racemic)
3.5	CC(C)(C)OC(=O)n1cc(CNC(=S)Nc2ccc(C(F)(F)F)cc2)c2ccccc21
17.2	CO[C@@H]1N(C(=O)OC(C)(C)C)c2ccccc2[C@@]12CN=C(Nc1cc(C(F)(F)F)cc(C(F)(F)F)c1)S2 (racemic)
18.4	CO[C@H]1N(C(=O)OC(C)(C)C)c2ccccc2[C@@]12CN=C(Nc1ccc([N+](=O)[O-])cc1)S2 (racemic)
53	CNC1=NC[C@]2(S1)c1ccccc1N(C(=O)OC(C)(C)C)[C@H]2OC (racemic)
19.6	CSC(=S)NCc1cn(C(=O)OC(C)(C)C)c2ccccc12

test system: HeLa; assay: Antiproliferative activity against human HeLa cells assessed as cell viability after 72 hrs by MTT assay; assay type: functional, cell-based; conditions: not given

Compound	IC50 [µM]
c1ccc2c3c([nH]c2c1)SC(N1CCOCC1)=NC3	72.5
CN(C1=NC[C@]2(S1)c1ccccc1N(C(=O)OC(C)(C)C)[C@H]2O)c1ccccc1 (racemic)	22.3
CC(C)(C)OC(=O)n1cc(CNC(=S)Nc2ccc(Br)cc2)c2ccccc21	4.5
CN(C1=NCc2c([nH]c3ccccc23)S1)c1ccccc1	71.7
COc1ccc(NC(=S)NCc2cn(C(=O)OC(C)(C)C)c3ccccc23)cc1	34
CN(C(=S)NCc1cn(C(=O)OC(C)(C)C)c2ccccc12)c1ccccc1	> 100
CO[C@H]1N(C(=O)OC(C)(C)C)c2ccccc2[C@@]12CN=C(N(C)c1ccccc1)S2 (racemic)	8.2

Further lines, results first:

IC50 [µM]	Compound
> 100	CNC(=S)NCc1cn(C(=O)OC(C)(C)C)c2ccccc12
14	CC(C)(C)OC(=O)n1cc(CNC(=S)Nc2ccc([N+](=O)[O-])cc2)c2ccccc21
> 100	CN(C1=NC[C@]2(S1)c1ccccc1N(C(=O)OC(C)(C)C)[C@@H]2O)c1ccccc1 (racemic)
4	CC(C)(C)OC(=O)n1cc(CNC(=S)Nc2ccc(C(F)(F)F)cc2)c2ccccc21
34.2	CO[C@@H]1N(C(=O)OC(C)(C)C)c2ccccc2[C@@]12CN=C(Nc1cc(C(F)(F)F)cc(C(F)(F)F)c1)S2 (racemic)
31.3	CO[C@H]1N(C(=O)OC(C)(C)C)c2ccccc2[C@@]12CN=C(Nc1ccc([N+](=O)[O-])cc1)S2 (racemic)
> 100	CNC1=NC[C@]2(S1)c1ccccc1N(C(=O)OC(C)(C)C)[C@H]2OC (racemic)
16.9	CSC(=S)NCc1cn(C(=O)OC(C)(C)C)c2ccccc12

test system: MCF7; assay: Antiproliferative activity against human MCF7 cells assessed as cell viability after 72 hrs by MTT assay; assay type: functional, cell-based; conditions: MCF7, 72 h

Compound	IC50 [µM]
c1ccc2c3c([nH]c2c1)SC(N1CCOCC1)=NC3	55.1
CN(C1=NC[C@]2(S1)c1ccccc1N(C(=O)OC(C)(C)C)[C@H]2O)c1ccccc1 (racemic)	30.3
CC(C)(C)OC(=O)n1cc(CNC(=S)Nc2ccc(Br)cc2)c2ccccc21	8.5
CN(C1=NCc2c([nH]c3ccccc23)S1)c1ccccc1	95
COc1ccc(NC(=S)NCc2cn(C(=O)OC(C)(C)C)c3ccccc23)cc1	92
CN(C(=S)NCc1cn(C(=O)OC(C)(C)C)c2ccccc12)c1ccccc1	> 100
CO[C@H]1N(C(=O)OC(C)(C)C)c2ccccc2[C@@]12CN=C(N(C)c1ccccc1)S2 (racemic)	1.5

Continued, values first:

IC50 [µM]	Compound
> 100	CNC(=S)NCc1cn(C(=O)OC(C)(C)C)c2ccccc12
9.3	CC(C)(C)OC(=O)n1cc(CNC(=S)Nc2ccc([N+](=O)[O-])cc2)c2ccccc21
2.7	CN(C1=NC[C@]2(S1)c1ccccc1N(C(=O)OC(C)(C)C)[C@@H]2O)c1ccccc1 (racemic)
3.5	CC(C)(C)OC(=O)n1cc(CNC(=S)Nc2ccc(C(F)(F)F)cc2)c2ccccc21
20.9	CO[C@@H]1N(C(=O)OC(C)(C)C)c2ccccc2[C@@]12CN=C(Nc1cc(C(F)(F)F)cc(C(F)(F)F)c1)S2 (racemic)
33	CO[C@H]1N(C(=O)OC(C)(C)C)c2ccccc2[C@@]12CN=C(Nc1ccc([N+](=O)[O-])cc1)S2 (racemic)
> 100	CNC1=NC[C@]2(S1)c1ccccc1N(C(=O)OC(C)(C)C)[C@H]2OC (racemic)
23	CSC(=S)NCc1cn(C(=O)OC(C)(C)C)c2ccccc12
65	CO[C@@H]1N(OC)c2ccccc2[C@@]12CN=C(SC)S2 (racemic)

test system: A549; assay: Antiproliferative activity against human A549 cells assessed as cell viability after 72 hrs by MTT assay; assay type: functional, cell-based; conditions: A549, 72 h

Compound	IC50 [µM]
c1ccc2c3c([nH]c2c1)SC(N1CCOCC1)=NC3	62.9
CN(C1=NC[C@]2(S1)c1ccccc1N(C(=O)OC(C)(C)C)[C@H]2O)c1ccccc1 (racemic)	28.7
CC(C)(C)OC(=O)n1cc(CNC(=S)Nc2ccc(Br)cc2)c2ccccc21	6.8
CN(C1=NCc2c([nH]c3ccccc23)S1)c1ccccc1	91.5
COc1ccc(NC(=S)NCc2cn(C(=O)OC(C)(C)C)c3ccccc23)cc1	> 100
CN(C(=S)NCc1cn(C(=O)OC(C)(C)C)c2ccccc12)c1ccccc1	> 100

The next lines start with the values.

IC50 [µM]	Compound
> 100	CNC(=S)NCc1cn(C(=O)OC(C)(C)C)c2ccccc12
11.5	CC(C)(C)OC(=O)n1cc(CNC(=S)Nc2ccc([N+](=O)[O-])cc2)c2ccccc21
> 100	CN(C1=NC[C@]2(S1)c1ccccc1N(C(=O)OC(C)(C)C)[C@@H]2O)c1ccccc1 (racemic)
4	CC(C)(C)OC(=O)n1cc(CNC(=S)Nc2ccc(C(F)(F)F)cc2)c2ccccc21
29	CO[C@@H]1N(C(=O)OC(C)(C)C)c2ccccc2[C@@]12CN=C(Nc1cc(C(F)(F)F)cc(C(F)(F)F)c1)S2 (racemic)
33	CO[C@H]1N(C(=O)OC(C)(C)C)c2ccccc2[C@@]12CN=C(Nc1ccc([N+](=O)[O-])cc1)S2 (racemic)
> 100	CNC1=NC[C@]2(S1)c1ccccc1N(C(=O)OC(C)(C)C)[C@H]2OC (racemic)
21.4	CSC(=S)NCc1cn(C(=O)OC(C)(C)C)c2ccccc12

test system: Jurkat; assay: Antiproliferative activity against human Jurkat cells assessed as cell viability after 72 hrs by MTT assay; assay type: functional, cell-based; conditions: not given

Compound	IC50 [µM]
c1ccc2c3c([nH]c2c1)SC(N1CCOCC1)=NC3	8.7
CN(C1=NC[C@]2(S1)c1ccccc1N(C(=O)OC(C)(C)C)[C@H]2O)c1ccccc1 (racemic)	21.6
CC(C)(C)OC(=O)n1cc(CNC(=S)Nc2ccc(Br)cc2)c2ccccc21	4.3
CN(C1=NCc2c([nH]c3ccccc23)S1)c1ccccc1	75.5
COc1ccc(NC(=S)NCc2cn(C(=O)OC(C)(C)C)c3ccccc23)cc1	30
CN(C(=S)NCc1cn(C(=O)OC(C)(C)C)c2ccccc12)c1ccccc1	> 100
CO[C@H]1N(C(=O)OC(C)(C)C)c2ccccc2[C@@]12CN=C(N(C)c1ccccc1)S2 (racemic)	5.9

Second part, the compound after the results:

IC50 [µM]	Compound
> 100	CNC(=S)NCc1cn(C(=O)OC(C)(C)C)c2ccccc12
3	CC(C)(C)OC(=O)n1cc(CNC(=S)Nc2ccc([N+](=O)[O-])cc2)c2ccccc21
5.3	CN(C1=NC[C@]2(S1)c1ccccc1N(C(=O)OC(C)(C)C)[C@@H]2O)c1ccccc1 (racemic)
3	CC(C)(C)OC(=O)n1cc(CNC(=S)Nc2ccc(C(F)(F)F)cc2)c2ccccc21
21.5	CO[C@@H]1N(C(=O)OC(C)(C)C)c2ccccc2[C@@]12CN=C(Nc1cc(C(F)(F)F)cc(C(F)(F)F)c1)S2 (racemic)
20.2	CO[C@H]1N(C(=O)OC(C)(C)C)c2ccccc2[C@@]12CN=C(Nc1ccc([N+](=O)[O-])cc1)S2 (racemic)
42	CNC1=NC[C@]2(S1)c1ccccc1N(C(=O)OC(C)(C)C)[C@H]2OC (racemic)
17.8	CSC(=S)NCc1cn(C(=O)OC(C)(C)C)c2ccccc12
44	CO[C@@H]1N(OC)c2ccccc2[C@@]12CN=C(SC)S2 (racemic)
